Data taken from patent EP4810052A2, “HCRHR2 SELECTIVE POLYPEPTIDES” (Gubra A/S, priority 2023, dated 2026).
Like-named read-outs stand apart in the source and are kept apart here. Starred links: 1 amine or outer side, 2 acyl side, 3 side chain; linkers in the order of their positions; H or OH if unused. Non-standard residues stand in square brackets, D forms with d. Residues, ends and D or L forms follow the SMILES beside them. Groups on a side chain read outwards from the residue. *: point of attachment. C20 diacid = O=C(O)CCCCCCCCCCCCCCCCCCC(=O)*; γGlu = O=C(O)[C@H](CCC(=O)[*:2])N[*:1]; AEEA = NCCOCCOCC(=O)O; Aib = CC(C)(N)C(=O)O

What was measured:
hCRHR1 = biological target: T1, hCRHR1 (Homo sapiens, UniProt P34998); experiment: HTRF cAMP assay, determination of hCRHR1 potency (peptide libraries 5 conc., purified peptides 11 conc.); type: cell-based
T1 sequence (P34998 24-415): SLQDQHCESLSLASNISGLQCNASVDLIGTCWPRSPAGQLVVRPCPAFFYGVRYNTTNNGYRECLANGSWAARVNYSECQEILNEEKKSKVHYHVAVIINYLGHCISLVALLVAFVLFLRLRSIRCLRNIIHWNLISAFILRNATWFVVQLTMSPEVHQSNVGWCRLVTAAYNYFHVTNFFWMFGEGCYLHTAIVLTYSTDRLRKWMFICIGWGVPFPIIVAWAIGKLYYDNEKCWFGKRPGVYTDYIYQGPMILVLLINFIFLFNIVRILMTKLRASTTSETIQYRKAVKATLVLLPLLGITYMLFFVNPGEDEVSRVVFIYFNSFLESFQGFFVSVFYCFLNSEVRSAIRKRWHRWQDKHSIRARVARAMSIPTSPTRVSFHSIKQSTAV
Method in brief: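 CHO-K1 cells stably expressing human CRHR1, thawed from frozen stocks just before use, were stimulated in suspension with agonist peptides. cAMP was measured by HTRF competitive immunoassay (cryptate anti-cAMP antibody vs d2-cAMP).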

[1] = Thioflavin T fibril formation assay of purified peptides; type: physicochemical; set-up: key: Amyloid fibril formation detected by an increase in ThT fluorescence was denoted with "Yes"; samples without increasing ThT fluorescence hence not forming amyloid fibrils were denoted "No"
Method in brief: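 Compounds at 200 µM in 50 mM phosphate buffer at the stated pH values, or at 200 µM in semaglutide drug product adjusted to pH 7.4, with 4 µM ThT final. Fibrillation followed as ThT fluorescence (ex 450/em 480 nm) over 96 h at 40°C, with 5 min shaking at 700 rpm alternating with 5 min rest; triplicates.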

hCRHR2 = biological target: T2, hCRHR2 (Homo sapiens, UniProt Q13324); experiment: HTRF cAMP assay, determination of hCRHR2 potency (peptide libraries 5 conc., purified peptides 11 conc.); type: cell-based
T2 sequence (Q13324 1-411): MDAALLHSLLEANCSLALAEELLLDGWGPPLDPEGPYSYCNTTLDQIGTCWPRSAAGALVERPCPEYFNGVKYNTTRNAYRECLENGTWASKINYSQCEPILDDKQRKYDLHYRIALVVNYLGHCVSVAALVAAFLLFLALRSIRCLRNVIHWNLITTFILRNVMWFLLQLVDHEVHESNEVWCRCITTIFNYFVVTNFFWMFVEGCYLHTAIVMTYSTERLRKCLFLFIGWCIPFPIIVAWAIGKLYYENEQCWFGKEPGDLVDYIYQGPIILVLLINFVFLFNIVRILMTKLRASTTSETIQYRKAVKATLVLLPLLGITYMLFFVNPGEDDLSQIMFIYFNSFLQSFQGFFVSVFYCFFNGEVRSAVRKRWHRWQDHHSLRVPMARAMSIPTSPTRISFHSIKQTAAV
Method in brief: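 CHO-K1 cells stably expressing human CRHR2, thawed from frozen stocks just before use and run in suspension; cAMP measured by competitive HTRF immunoassay (cryptate anti-cAMP, d2-cAMP). Agonist peptides tested at 5 (libraries) or 11 (purified) concentrations; EC50 from sigmoid variable-slope nonlinear regression.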

[2] = purified peptides, CHO-K1 cells stably expressing hCRHR1, cAMP HTRF, read-out: hCRHR1 EC50
[3] = purified peptides, CHO-K1 cells stably expressing hCRHR2, cAMP HTRF, read-out: hCRHR2 EC50

Row | SMILES | EC50 (hCRHR1; [2]) [nM] | Fibrillation (pH 7.5) ([1]; pH 7.5, ThT assay) | Selectivity ratio (hCRHR1/ hCRHR2) (hCRHR2; hCRHR1-EC50/hCRHR2-EC50) | EC50 (hCRHR2; [3]) [nM] | EC50 (hCRHR1; Table 3, matched molecular pairs X^38 L vs Nle, peptide library of Example 4, read-out: hCRHR1 pEC50 (converted)) [nM] | EC50 (hCRHR1; Table 5, purified peptides, read-out: hCRHR1 EC50) [nM] | EC50 (hCRHR1; stable cell system, Table 10, read-out: Stable EC50 (nM) hCRHR 1) [nM] | Fibrillation (pH 7.5) ([1]; pH 7.5) | EC50 (hCRHR2; Table 3, matched molecular pairs X^38 L vs Nle, peptide library of Example 4, read-out: hCRHR2 pEC50 (converted)) [nM] | Selectivity ratio (hCRHR1/ hCRHR2) (hCRHR2; Table 5)
1 | CC[C@H](C)[C@H](N)C(=O)N[C@H](C(=O)N[C@@H](CC(C)C)C(=O)N[C@@H](CO)C(=O)N[C@@H](CC(C)C)C(=O)N[C@@H](CC(=O)O)C(=O)N[C@H](C(=O)N1CCC[C@H]1C(=O)N[C@H](C(=O)NCC(=O)N[C@@H](CC(C)C)C(=O)N[C@@H](CC(C)C)C(=O)N[C@@H](CCC(N)=O)C(=O)N[C@H](C(=O)N[C@@H](CC(C)C)C(=O)N[C@@H](CC(C)C)C(=O)N[C@@H](CCC(=O)O)C(=O)N[C@@H](CCC(N)=O)C(=O)N[C@@H](C)C(=O)N[C@@H](CCCNC(=N)N)C(=O)N[C@@H](C)C(=O)N[C@@H](CCCNC(=N)N)C(=O)N[C@@H](C)C(=O)N[C@@H](C)C(=O)N[C@@H](CCCNC(=N)N)C(=O)N[C@@H](CCC(=O)O)C(=O)N[C@@H](CCC(N)=O)C(=O)N[C@@H](C)C(=O)N[C@@H](CCCCNC(=O)COCCOCCNC(=O)COCCOCCNC(=O)CC[C@H](NC(=O)CC[C@H](NC(=O)CCCCCCCCCCCCCCCCCCC(=O)O)C(=O)O)C(=O)O)C(=O)NC(C)(C)C(=O)N[C@@H](CC(N)=O)C(=O)N[C@@H](C)C(=O)N[C@@H](CCC(=O)O)C(=O)N[C@H](C(=O)N[C@@H](CC(C)C)C(=O)N[C@@H](C)C(=O)N[C@@H](CCC(=O)O)C(=O)N[C@H](C(N)=O)C(C)C)[C@@H](C)CC)[C@@H](C)CC)[C@@H](C)CC)C(C)C)C(C)C [SEQ ID NO: 19] (H-IVLSLDVPIGLLQILLEQARARAAREQAK([AEEA-AEEA-γGlu-γGlu-C20 diacid])[Aib]NAEILAEV-NH2) | > 5000 | No | >3125 | 1.6 |  |  |  |  |  | 
2 | CC[C@H](C)[C@H](N)C(=O)N[C@H](C(=O)N[C@@H](CC(C)C)C(=O)N[C@@H](CO)C(=O)N[C@@H](CC(C)C)C(=O)N[C@@H](CC(=O)O)C(=O)N[C@H](C(=O)N1CCC[C@H]1C(=O)N[C@H](C(=O)NCC(=O)N[C@@H](CC(C)C)C(=O)N[C@@H](CC(C)C)C(=O)N[C@@H](CCC(N)=O)C(=O)N[C@H](C(=O)N[C@@H](CC(C)C)C(=O)N[C@@H](CC(C)C)C(=O)N[C@@H](CCC(=O)O)C(=O)N[C@@H](CCC(N)=O)C(=O)N[C@@H](C)C(=O)N[C@@H](CCCNC(=N)N)C(=O)N[C@@H](C)C(=O)N[C@@H](CCCNC(=N)N)C(=O)N[C@@H](C)C(=O)N[C@@H](C)C(=O)N[C@@H](CCCNC(=N)N)C(=O)N[C@@H](CCC(=O)O)C(=O)N[C@@H](CCC(N)=O)C(=O)N[C@@H](C)C(=O)N[C@@H](CCCCNC(=O)COCCOCCNC(=O)COCCOCCNC(=O)CC[C@H](NC(=O)CC[C@H](NC(=O)CCCCCCCCCCCCCCCCCCC(=O)O)C(=O)O)C(=O)O)C(=O)N[C@@H](CCC(=O)O)C(=O)N[C@@H](CC(N)=O)C(=O)N[C@@H](C)C(=O)N[C@@H](CCC(=O)O)C(=O)N[C@H](C(=O)N[C@@H](CC(C)C)C(=O)N[C@@H](C)C(=O)N[C@@H](CCC(=O)O)C(=O)N[C@H](C(N)=O)C(C)C)[C@@H](C)CC)[C@@H](C)CC)[C@@H](C)CC)C(C)C)C(C)C [SEQ ID NO: 17] (H-IVLSLDVPIGLLQILLEQARARAAREQAK([AEEA-AEEA-γGlu-γGlu-C20 diacid])ENAEILAEV-NH2) | > 5000 | No | >2381 | 2.1 |  |  |  |  |  | 
3 | CC[C@H](C)[C@H](N)C(=O)N[C@H](C(=O)N[C@@H](CC(C)C)C(=O)N[C@@H](CO)C(=O)N[C@@H](CC(C)C)C(=O)N[C@@H](CC(=O)O)C(=O)N[C@H](C(=O)N1CCC[C@H]1C(=O)N[C@H](C(=O)NCC(=O)N[C@@H](CC(C)C)C(=O)N[C@@H](CC(C)C)C(=O)N[C@@H](CCC(N)=O)C(=O)N[C@H](C(=O)N[C@@H](CC(C)C)C(=O)N[C@@H](CC(C)C)C(=O)N[C@@H](CCC(=O)O)C(=O)N[C@@H](CCC(N)=O)C(=O)N[C@@H](C)C(=O)N[C@@H](CCCNC(=N)N)C(=O)N[C@@H](C)C(=O)N[C@@H](CCCNC(=N)N)C(=O)N[C@@H](C)C(=O)N[C@@H](C)C(=O)N[C@@H](CCCNC(=N)N)C(=O)N[C@@H](CCC(=O)O)C(=O)N[C@@H](CCC(N)=O)C(=O)N[C@@H](C)C(=O)N[C@@H](CCCCNC(=O)COCCOCCNC(=O)COCCOCCNC(=O)CC[C@H](NC(=O)CC[C@H](NC(=O)CCCCCCCCCCCCCCCCCCC(=O)O)C(=O)O)C(=O)O)C(=O)N[C@H](C(=O)N[C@@H](CC(N)=O)C(=O)N[C@@H](C)C(=O)N[C@@H](CCC(=O)O)C(=O)N[C@H](C(=O)N[C@@H](CC(C)C)C(=O)N[C@@H](C)C(=O)N[C@@H](CCC(=O)O)C(=O)N[C@H](C(N)=O)C(C)C)[C@@H](C)CC)[C@@H](C)O)[C@@H](C)CC)[C@@H](C)CC)C(C)C)C(C)C [SEQ ID NO: 3] (H-IVLSLDVPIGLLQILLEQARARAAREQAK([AEEA-AEEA-γGlu-γGlu-C20 diacid])TNAEILAEV-NH2) | > 5000 | No | >4546 | 1.1 | 25100 | > 5000 | > 5000 | No | 0.501 | >4546
4 | CC[C@H](C)[C@H](N)C(=O)N[C@H](C(=O)N[C@@H](CC(C)C)C(=O)N[C@@H](CO)C(=O)N[C@@H](CC(C)C)C(=O)N[C@@H](CC(=O)O)C(=O)N[C@H](C(=O)N1CCC[C@H]1C(=O)N[C@H](C(=O)NCC(=O)N[C@@H](CC(C)C)C(=O)N[C@@H](CC(C)C)C(=O)N[C@@H](CCC(N)=O)C(=O)N[C@H](C(=O)N[C@@H](CC(C)C)C(=O)N[C@@H](CC(C)C)C(=O)N[C@@H](CCC(=O)O)C(=O)N[C@@H](CCC(N)=O)C(=O)N[C@@H](C)C(=O)N[C@@H](CCCNC(=N)N)C(=O)N[C@@H](C)C(=O)N[C@@H](CCCNC(=N)N)C(=O)N[C@@H](C)C(=O)N[C@@H](C)C(=O)N[C@@H](CCCNC(=N)N)C(=O)N[C@@H](CCC(=O)O)C(=O)N[C@@H](CCC(N)=O)C(=O)N[C@@H](C)C(=O)N[C@H](C(=O)N[C@@H](CCCCNC(=O)COCCOCCNC(=O)COCCOCCNC(=O)CC[C@H](NC(=O)CC[C@H](NC(=O)CCCCCCCCCCCCCCCCCCC(=O)O)C(=O)O)C(=O)O)C(=O)N[C@@H](CC(N)=O)C(=O)N[C@@H](C)C(=O)N[C@@H](CCC(=O)O)C(=O)N[C@H](C(=O)N[C@@H](CC(C)C)C(=O)N[C@@H](C)C(=O)N[C@@H](CCC(=O)O)C(=O)N[C@H](C(N)=O)C(C)C)[C@@H](C)CC)[C@@H](C)O)[C@@H](C)CC)[C@@H](C)CC)C(C)C)C(C)C [SEQ ID NO: 4] (H-IVLSLDVPIGLLQILLEQARARAAREQATK([AEEA-AEEA-γGlu-γGlu-C20 diacid])NAEILAEV-NH2) | > 5000 | No | >3846 | 1.3 |  |  |  |  |  | 
